Experimental data published in patent US20140255402A1 (priority 2013, published 2014).

Test system: NALM/6 cells
Set-up: species or system mice
Settings: mouse, in vivo

Structure (SMILES): Nc1ccn([C@@H]2O[C@H](CO)[C@@H](O)[C@@H]2O)c(=O)n1 [Ara-C, Cytarabine]
- Survival difference as compared to placebo: no significant survival difference
